Laboratory results taken from US20180311238A1, “Selective Agonist Of a6 Containing nAChRs” (Saniona A/S, priority 2017, published 2018).

Tested on: reserpine-induced tremors
Experiment: Reserpine-induced tremors in rats (tremor monitor power spectra)
Assay type: in vivo, rat
Conditions: for effect on reserpine-induced tremors in pilot studies: rats, L-DOPA with benserazide
Excerpt: Parkinson's disease is associated with severe dopamine deficiency caused by neurodegeneration of dopaminergic cell bodies residing in Substantia Nigra pars compacta. As alpha6 nAChRs are enriched in the nigrostriatal dopamine pathway, activating this receptor may ameliorate symptoms in nigro-striatal dopamine deficiency models. Reserpine injections to rodents result in depletion of monoamines in the nigro-striatal dopamine pathway, resulting in catalepsy and tremors. Both behaviours can be quantified using dedicated tremor boxes.
Six groups of male Sprague Dawley rats (250-300 grams) were subjected to the following treatment schedules, and effects on power spectra, assessed in automated tremor monitors were evaluated for 30 minutes: • Vehicle+vehicle • Vehicle+reserpine (1 mg/kg) • 9-Methyl-3-pyridin-3-yl-3,9-diaza-bicyclo[3.3.1]nonane (0.1 mg/kg)+reserpine (1 mg/kg) • 9-Methyl-3-pyridin-3-yl-3,9-diaza-bicyclo[3.3.1]nonane (1.0 mg/kg)+reserpine (1 mg/kg) • L-DOPA (100 mg/kg)+reserpine (1 mg/kg) • 9-Methyl-3-pyridin-3-yl-3,9-diaza-bicyclo[3.3.1]nonane (1.0 mg/kg)+L-DOPA (100 mg/kg)+reserpine (1 mg/kg)
Reserpine was pre-treated i.v. 60 minutes prior to test start in a dose volume of 2 ml/kg. 9-Methyl-3-pyridin-3-yl-3,9-diaza-bicyclo[3.3.1]nonane was pre-treated s.c. 45 minutes prior to test start in a dose volume of 1 ml/kg. The dose of 9-methyl-3-pyridin-3-yl-3,9-diaza-bicyclo[3.3.1]nonane was based on 3H-epibatidin displacement studies showing half maximal displacement of specific binding of 3H-epibatidin in doses equaling 0.15 mg/kg in rats. L-DOPA was pre-treated i.p. 30 minutes prior to test start in a dose volume of 5 ml/kg. […] All animals dosed with L-DOPA was also dosed with the peripherally acting decarboxylase inhibitor Benserazide to prevent the peripheral break down of L-DOPA (benserazide: 50 mg/kg, s.c., 30 min. prior to test start in a dose volume of 1 ml/kg).

[1] = reserpine 1 mg/kg i.v., compound 0.1 and 1.0 mg/kg s.c., L-DOPA 100 mg/kg i.p. + benserazide

| Compound | activity per se of the L-DOPA dose in pilot studies (pilot studies, L-DOPA 100 mg/kg i.p.) | effect on reserpine-induced tremors in pilot studies (pilot studies) | effect on reserpine-induced tremors, AUC 20-43 Hz (reserpine 1 mg/kg i.v., L-DOPA 100 mg/kg i.p. + benserazide) | effect on reserpine-induced tremors, AUC 40-63 Hz [1] | reversal of reserpine-induced reduction of low frequency movements (catalepsy), AUC 3-13 Hz [1] |
| --- | --- | --- | --- | --- | --- |
| N[C@@H](Cc1ccc(O)c(O)c1)C(=O)O [L-DOPA] | marginal activity per se | reverse reserpine-induced tremors | without exerting any effects | reduces reserpine-induced tremors | Neither threshold dose of L-DOPA, nor 9-methyl-3-pyridin-3-yl-3,9-diaza-bicyclo[3.3.1]nonane or the combination of the two, was able to reverse this reduction |
| CN1CCc2cccc3c2[C@H]1Cc1ccc(O)c(O)c1-3 [apomorphine] |  | reverse reserpine-induced tremors |  |  |  |
